Results as given in patent publication US5073539A, “Transdermal administration of zwitterionic drugs” (Ciba-Geigy Corporation, priority 1990, dated 1991).
Converted amounts (≈) assume the structure as drawn. Where a name gives a salt, the structure may show the parent alone. Read-outs that look alike come from different tables or passages of the source.

Legend:
[1] = Permeation rate through polyurethane; format: physicochemical
From the text: (§1) In the examples, the solubilities of free zwitterion and enhanced solubilities of various salts thereof are reported in various degrees in the following solvents: water, ethanol, octanol, chloroform and human stratum corneum. Permeation rates are also shown for these zwitterionic compounds and enhanced fluxes of the salts thereof through materials including polyurethane. While such materials are impractical for transdermal devices for free zwitterions, these materials are practical for the transdermal delivery of salts of zwitterions. The solubility in water is given as a model of polar solvents, while the octanol and chloroform are given as models for skin lipids. The critical factor for inclusion of a salt within the invention is that relative to its non salt zwitterion parent compound, the salt form of the invention has a greater solubility in both polar and lipid skin models.
(§2) Average of values measured in triplicate.

[2] = Solubility in water at 25 deg. C.; format: physicochemical; conditions: average of triplicate
From the text: (§3) The solubility in water is given as a model of polar solvents, while the octanol and chloroform are given as models for skin lipids.

[3] = Solubility in chloroform at 25 deg. C. (model of skin lipids); format: physicochemical
From the text: as §1, §2

[4] = Permeation rate through human epidermis; format: in vitro ADME
From the text: as §1, §2

[5] = Solubility in ethanol at 25 deg. C.; format: physicochemical; conditions: average of triplicate
[6] = Solubility in human stratum corneum; format: physicochemical; conditions: average of triplicate
From the text: as §1, §2

[7] = Solubility in octanol at 25 deg. C. (model of skin lipids); format: physicochemical; conditions: average of triplicate
From the text: as §3

[8] = at 25 deg. C., average of triplicate

Compound | Permeation rate through polyurethane ([1]; average of triplicate) [ug/cm 2/hr] | R.E. (relative enhancement) of permeation rate through polyurethane ([1]; relative to free zwitterion) | Solubility in water [2] [mg/mL] | Solubility in chloroform [3, 8] [µg/mL] | Permeation rate through polyurethane [1] [ug/cm 2/hr] | R.E. (relative enhancement) of permeation rate through polyurethane [1] | Solubility in ethanol [5] [mg/mL] | Solubility in octanol [7] [mg/mL] | further results
NCC(CC(=O)O)c1ccc(Cl)cc1 (stereo not drawn) [Bac. maleate] | 19.13 | 3.59 | 1.2923 | 0.026 |  |  |  |  | 
NCC(CC(=O)O)c1ccc(Cl)cc1 (stereo not drawn) [Bac. potassium salt] | 587.8 | 110.49 |  |  |  |  |  |  | 
NCC(CC(=O)O)c1ccc(Cl)cc1 (stereo not drawn) [Bac. hydrofluoride] | 3.45 | 0.65 | 1.3962 (≈ 6.53 mM) | 0.104 (≈ 0.000487 mM) |  |  | 1.79088 (≈ 8.38 mM) |  | Solubility in human stratum corneum [6]: 0.02215 mg/mL (≈ 0.104 mM)
NCC(CC(=O)O)c1ccc(Cl)cc1 (stereo not drawn) [Bac. propane sulfonate] | 233.9 | 43.97 | 24.4257 | 8.74 |  |  | 107.317 |  | 
NCC(CC(=O)O)c1ccc(Cl)cc1 (stereo not drawn) [Bac. ethane sulfonate] | 211.9 | 39.83 | 38.8898 | 11.17 |  |  | 237.181 |  | 
NCC(CC(=O)O)c1ccc(Cl)cc1 (stereo not drawn) [Bac. methane sulfonate, baclofen methane sulfonate] | 287.9 | 54.12 | 8.8269 | 0.087 |  |  | 170.84 |  | solubility in chloroform versus free zwitterion ([3]; in words, exception to salt being more soluble): one exception
NCC(CC(=O)O)c1ccc(Cl)cc1 (stereo not drawn) [Baclofen (Bac), Baclofen, reference compound] | 5.32 | 1.00 | 6.8287 (≈ 32 mM) | 0.22 (≈ 0.00103 mM) |  |  | 1.1441 (≈ 5.35 mM) | 0.0222 (≈ 0.104 mM) | Permeation rate through human epidermis ([4]; average of triplicate): 0.118 ug/cm 2/hr; R.E. (relative enhancement) of permeation rate through human epidermis ([4]; relative to free zwitterion): 1.00; Solubility in human stratum corneum [6]: 0.00311 mg/mL (≈ 0.0146 mM)
NCC(CC(=O)O)c1ccc(Cl)cc1 (stereo not drawn) [Bac. fumarate] | 11.4 | 2.14 | 1.1875 | 0.627 |  |  |  |  | 
NC(Cc1ccccc1)C(=O)O (stereo not drawn) [Phe. hydrochloride] | 1516.23 | 789.70 | 959.6908 | 58.26 |  |  | 107.1459 | 40.2318 | Permeation rate through human epidermis ([4]; average of triplicate): 77.53 ug/cm 2/hr; R.E. (relative enhancement) of permeation rate through human epidermis ([4]; relative to free zwitterion): 76.01
NCC(CC(=O)O)c1ccc(Cl)cc1 (stereo not drawn) [Bac. lithium salt] | 128.3 | 24.12 | 21.7191 | 6.93 |  |  | 57.8373 |  | 
NCC(CC(=O)O)c1ccc(Cl)cc1 (stereo not drawn) [Bac. hydrochloride] | 273.7 | 51.45 | 244.6225 | 5.34 |  |  | 37.4989 | 0.3243 | Solubility in human stratum corneum [6]: 0.21469 mg/mL
NCC(CC(=O)O)c1ccc(Cl)cc1 (stereo not drawn) [Bac. pentane sulfonate] | 220.2 | 41.30 |  | 37.4 |  |  | 61.6503 | 0.5764 | 
NCC(CC(=O)O)c1ccc(Cl)cc1 (stereo not drawn) [Bac. sodium salt] | 605.3 | 113.78 | 21.3797 | 3.47 |  |  | 529.056 |  | 
N[C@@H](Cc1ccccc1)C(=O)O [Phenylalanine (Phe), Phenylalanine, reference compound] | 1.92 | 1.00 |  |  |  |  |  |  | solubility ([7]; octanol, organic solvent or mixture): 0.0123 mg/mL (≈ 0.0745 mM); Permeation rate through human epidermis ([4]; average of triplicate): 1.02 ug/cm 2/hr; R.E. (relative enhancement) of permeation rate through human epidermis ([4]; relative to free zwitterion): 1.00; solubility ([5]; ethanol, organic solvent or mixture): 0.234 mg/mL (≈ 1.42 mM); solubility ([2]; water): 25.3 mg/mL (≈ 153 mM); solubility ([3]; chloroform, organic solvent or mixture, at 25 deg. C., average of triplicate): 0.00021 mg/mL (≈ 0.00127 mM)
NCC(CC(=O)O)c1ccc(Cl)cc1 (stereo not drawn) [Bac. hydrobromide] | 738.9 | 138.89 | 351.9468 | 13.7 |  |  | 129.5697 | 0.47705 | Permeation rate through human epidermis ([4]; average of triplicate): 25.49 ug/cm 2/hr; R.E. (relative enhancement) of permeation rate through human epidermis ([4]; relative to free zwitterion): 216.02; Solubility in human stratum corneum [6]: 0.2922 mg/mL

Second part, led by results:

Permeation rate through polyurethane ([1]; average of triplicate) [ug/cm 2/hr] | R.E. (relative enhancement) of permeation rate through polyurethane ([1]; relative to free zwitterion) | Solubility in water [2] [mg/mL] | Solubility in chloroform [3, 8] [µg/mL] | Permeation rate through polyurethane [1] [ug/cm 2/hr] | R.E. (relative enhancement) of permeation rate through polyurethane [1] | Solubility in ethanol [5] [mg/mL] | Solubility in octanol [7] [mg/mL] | Compound | further results
 |  |  |  | 0.311 | 1.00 | 0.12089 (≈ 0.305 mM) |  | O=C(O)CN1C(=O)[C@@H](N[C@@H](CCc2ccccc2)C(=O)O)CCc2ccccc21 [Benazeprilat (CGS14831), Benazeprilat, reference compound] | Permeation rate through human epidermis [4]: 0.1409 ug/cm 2/hr; R.E. (relative enhancement) of permeation rate through human epidermis [4]: 1.00
 |  | 1127.8 |  | 13.34 | 24.80 | 1.89075 | 0.0878 | NCCCC[C@H](N[C@H]1CCc2ccccc2N(CC(=O)O)C1=O)C(=O)O [CGS 16617. dihydrochloride] | 
 |  | 1423 |  | 65.31 | 121.39 | 45.0269 | 0.5067 | NCCCC[C@H](N[C@H]1CCc2ccccc2N(CC(=O)O)C1=O)C(=O)O [CGS 16617. dihydrobromide] | 
 |  |  |  | 47.76 | 153.57 | 27.97561 |  | O=C(O)CN1C(=O)[C@@H](N[C@@H](CCc2ccccc2)C(=O)O)CCc2ccccc21 [CGS 14831. dilithium salt] | Permeation rate through human epidermis [4]: 8.95 ug/cm 2/hr; R.E. (relative enhancement) of permeation rate through human epidermis [4]: 63.52
 |  | 623.9 |  | 3.47 | 6.45 | 0.24882 | 0.01396 | NCCCC[C@H](N[C@H]1CCc2ccccc2N(CC(=O)O)C1=O)C(=O)O [CGS 16617. monomaleate] | 
 |  |  |  | 75.01 | 241.19 | 34.19351 |  | O=C(O)CN1C(=O)[C@@H](N[C@@H](CCc2ccccc2)C(=O)O)CCc2ccccc21 [CGS 14831. dipotassium salt] | Permeation rate through human epidermis [4]: 20.56 ug/cm 2/hr; R.E. (relative enhancement) of permeation rate through human epidermis [4]: 145.92
 |  | 491.5 (≈ 1350 mM) |  | 0.538 | 1.00 | 0.1907 (≈ 0.525 mM) | 0.02336 (≈ 0.0643 mM) | NCCCC[C@H](N[C@H]1CCc2ccccc2N(CC(=O)O)C1=O)C(=O)O [CGS 16617, reference compound] | 
